Reference: US10919878B2, “MCT4 inhibitors and uses thereof” (CHARLES R. DREW UNIVERSITY OF MEDICINE AND SCIENCE, priority 2018, dated 2021)

What was measured:
[1] = system: MDA-MB-231 cells; experiment: Viability/cytotoxicity assay (growth inhibition); assay type: cell-based; conditions: Homo sapiens, read-out: IC50, inhibition of cell proliferation
Protocol: Human cell lines MDA-MB-231 cells were obtained from ATCC (Rockville, Md.). These cells were authenticated by Laragen, Inc. (Culver City, Calif.), by short tandem repeat (STR) profiling, monitoring cell morphology and biological behavior, and tested to exclude mycoplasma contamination prior to use.
A viability/cytotoxicity assay was performed by culturing cells in 96-well plates. The following day the cells were treated with ½ serial dilutions of each compound or the solvent (DMSO) alone as a control. The amount of solvent was the same in all the conditions and each condition was tested in duplicate or triplicate. After 5 days incubation, the effect of the compounds on cell proliferation were determined by either MTT (3-(4,5-dimethylthiazol-2-yl)-2,5-diphenyltetrazolium bromide, Sigma-Aldrich, St. Louis, Mo.) or bioluminescence assay (Cell Titer Glo, Promega, Madison, Wis.). After incubation of the cells with MTT (1 mg/ml), the developed color was dissolved in DMSO and read by a plate reader. The bioluminescence assays were performed according to the manufacturer's recommendation. Growth inhibition rates were determined by comparing the read out for each compound dilution versus the control and from the growth inhibition curves from which the IC50 values were calculated. Each assay was performed at least twice.

[2] = system: MDA-MB-231 tumors; experiment: MDA-MB-231 TNBC xenograft tumor model in nude mice; assay type: in vivo; conditions: 20 mg/kg intraperitoneally, up to 4 weeks; for tumor growth (size and weight): daily 5 days then 2 days rest
Protocol: Values represent mean±SD, n=6-8 mice/group.
Values represent mean±SD, n=8 mice/group.
The anti-tumor effects of the MCT4 inhibitors CB-1, CB-2 and/or CB-3 were evaluated in nude mice implanted with human triple negative breast cancer (TNBC) cells (MDA-MB-231). For TNBC xenograft tumor models, MDA-MB-231 (5×10^6) cancer cells were injected subcutaneously into the flanks of female athymic nude mice (nu/nu, 4 weeks old). Two weeks after the injection of cancer cells, xenograft tumors were found in the injection site. Tumor dimensions were measured, and volume was calculated by length (L), width (W), and height (H) using the formula (volume=π/6×L×W×H). After the tumors reached a volume of 50 mm^3, the mice were injected intraperitoneally with 20 mg/kg CB-1, CB-2, CB-3 or with the vehicle solution (DMSO; i.e., Control) for up to 4 weeks. The MCT4 inhibitors were injected daily for 5 days and then mice were rested for 2 days.

[3] = biological target: T1, MCT4 (Homo sapiens, UniProt O15427); experiment: Lactate secretion assay (LACTATE-GLO Assay); assay type: cell-based; conditions: MDA-MB-231 cells, compounds 2.5 μM, 48 h
T1 construct: host or cells: MDA-MB-231
T1 sequence (O15427 1-465): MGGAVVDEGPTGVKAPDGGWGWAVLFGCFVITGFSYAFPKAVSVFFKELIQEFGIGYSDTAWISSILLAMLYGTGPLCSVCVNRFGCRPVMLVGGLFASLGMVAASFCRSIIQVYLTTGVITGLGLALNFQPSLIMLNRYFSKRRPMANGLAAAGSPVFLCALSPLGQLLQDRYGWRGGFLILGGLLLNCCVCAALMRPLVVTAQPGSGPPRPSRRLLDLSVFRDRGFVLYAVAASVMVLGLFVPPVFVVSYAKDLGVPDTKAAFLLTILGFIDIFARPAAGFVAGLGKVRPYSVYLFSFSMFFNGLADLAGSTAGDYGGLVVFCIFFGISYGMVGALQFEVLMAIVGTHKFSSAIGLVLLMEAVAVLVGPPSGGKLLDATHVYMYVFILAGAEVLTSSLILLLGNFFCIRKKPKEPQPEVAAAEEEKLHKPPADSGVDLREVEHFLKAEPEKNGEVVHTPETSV
Protocol: Briefly, MDA-MB-231 cells were incubated with the various compounds (2.5 μM) for 48 h followed by a lactate secretion assay. […] Small compound names are shown on the x-axis. Diclofenac was used as a positive control.
MDA-MB-231 cells were incubated with various candidate compounds (2.5 μM) for 48 hours followed by lactate secretion assay with a LACTATE-GLO™ Assay kit (Promega Corporation, Madison, Wis.) according to the manufacturer's protocol.

| SMILES | IC50 [1] | tumor growth (size and weight) [2] | body weight of the mice [2] | lactate secretion inhibition [3] | signs of systemic toxicity [2] |
| --- | --- | --- | --- | --- | --- |
| O=C(Nc1cc(Cl)ccc1Oc1ccc2ccccc2c1Br)c1cc(Cl)cc(I)c1O [CB-1, N-{2-[(1-bromo-2-naphthyl)oxy]-5-chlorophenyl}-5-chloro-2-hydroxy-3-iodobenzamide] | 35.3 µM | significantly inhibited tumor growth | began to lose weight |  |  |
| O=C(Nc1ccc(Nc2cc(-n3ccnc3)ncn2)cc1)Nc1cc(F)cc(F)c1 [CB-3, N-(3,5-difluorophenyl)-N′-(4-{[6-(1H-imidazol-1-yl)-4-pyrimidinyl]amino}phenyl)urea] |  | strikingly reduced the size and weight | without affecting body weight | most effective | no detectable signs of systemic toxicity |
